Among the data in US9458181B2, “Cathepsin cysteine protease inhibitors” (Merck Sharp & Dohme Corp., priority 2013, dated 2016) are IC50 values, retold here.

One experiment addresses human cathepsin K (UniProt P43236). As to the kind of experiment: Cathepsin K Assay (hrbCat K). It counts as biochemical. To be noted: human cathepsin K 0.4 nM, Z-Leu-Arg-AMC 8 μM, pH 5.5, 15 min preincubation; read-out: hrbCat K IP. How it is done: Cathepsin K Assay (hrbCat K)
(§1) Serial dilutions (⅓) from 500 μM down to 0.025 μM of test compounds were prepared in dimethyl sulfoxide (DMSO). Then 0.5 μL of DMSO from each dilution were added to 18.75 μL of assay buffer (MES, 50 mM (pH 5.5); EDTA, 2.5 mM; DTT, 2.5 mM and 10% DMSO) containing human cathepsin K (0.4 nM) in assay buffer solution. The assay solutions were mixed for 5-10 seconds on a shaker plate and incubated for 15 minutes at room temperature. Z-Leu-Arg-AMC (8 μM) in 6.25 μL of assay buffer was added to the assay solutions. Hydrolysis of the coumarin leaving group (AMC) was followed by spectrofluorometry (Exλ=360 nm; Emλ=460 nm) for 30 minutes. Percent of inhibition were calculated by fitting experimental values to standard mathematical model for dose response curve.

The target of the next experiment is T1, human cathepsin F (Homo sapiens, UniProt Q9UBX1).
T1 sequence (Q9UBX1 271-484): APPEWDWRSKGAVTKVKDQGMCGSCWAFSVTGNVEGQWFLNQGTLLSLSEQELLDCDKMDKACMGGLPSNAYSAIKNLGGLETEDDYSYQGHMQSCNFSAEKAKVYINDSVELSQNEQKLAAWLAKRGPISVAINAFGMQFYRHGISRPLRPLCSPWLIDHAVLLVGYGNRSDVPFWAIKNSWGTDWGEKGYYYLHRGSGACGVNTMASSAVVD
As to the kind of experiment: Cathepsin F assay (hCat F). To be noted: human cathepsin F 10 nM, Z-Phe-Arg-AMC 8 μM, pH 5.5, 15 min preincubation; read-out: hCat F IP. It counts as biochemical. How it is done: Cathepsin F assay (hCat F)
as §1, with “F (10” for “K (0.4”, “Z-Phe-Arg-AMC” for “Z-Leu-Arg-AMC”, “(Exp, =360” for “(Exλ=360”, “EmX=460” for “Emλ=460”, “20” for “30”

For `N#CC1(NC(=O)[C@@H]2CCCC[C@H]2c2oc(-c3ccc(F)cc3)nc2-c2ccc(N3CC4CC3CS4(=O)=O)cc2)CC1` (mixture of isomers) [Example 87, (1R,2R)-N-(1-cyanocyclopropyl)-2-(4-(4-((1R,4R and 1S,4S)-2,2-dioxido-2-thia-5-azabicyclo[2.2.1]heptan-5-yl)phenyl)-2-(4-fluorophenyl)oxazol-5-yl)cyclohexanecarboxamide], the IC50 at human cathepsin K is 4.09 nM; at human cathepsin F it was 1220 nM. Turning to `N#CC1(NC(=O)[C@@H]2CCCC[C@H]2c2oc(C3CC4CCC(C3)C4(F)F)nc2-c2ccc(N3CCS(=O)(=O)CC3)cc2)CC1` (mixture of isomers) [Example 109, (1R,2R)-N-(1-cyanocyclopropyl)-2-(2-((1R,3R,5S and 1R,3S,5S)-8,8-difluorobicyclo[3.2.1]octan-3-yl)-4-(4-(1,1-dioxidothiomorpholino)phenyl)oxazol-5-yl)cyclohexanecarboxamide], the IC50 came to 1.7 nM at human cathepsin K and 1500 nM on human cathepsin F.

For the compound `N#CC1(NC(=O)[C@@H]2CCCC[C@H]2c2oc(C3CCC(C(F)(F)F)CC3)nc2-c2ccc(N3CCS(=O)(=O)CC3)cc2)CC1` (mixture of isomers) [Example 111, (1R,2R)-N-(1-cyanocyclopropyl)-2-(4-(4-(1,1-dioxidothiomorpholino)phenyl)-2-((1R,4R and 1S,4S)-4-(trifluoromethyl)cyclohexyl)oxazol-5-yl)cyclohexanecarboxamide], the IC50 on human cathepsin K is 1.83 nM; at human cathepsin F, 1060 nM. With `CC(C#N)NC(=O)[C@@H]1CCCC[C@H]1c1oc(-c2ccc(F)cc2F)nc1-c1ccc(N2CCS(=O)(=O)CC2)cc1` (single isomer, unassigned) [Example 45, (1R,2R)-N-((R or S)-1-cyanoethyl)-2-(2-(2,4-difluorophenyl)-4-(4-(1,1-dioxidothiomorpholino)phenyl)oxazol-5-yl)cyclohexanecarboxamide], at human cathepsin K, the IC50 amounted to 32.7 nM. For the compound `N#CC1(NC(=O)[C@@H]2CCCC[C@H]2c2oc(-c3ccc(F)cc3)nc2-c2ccc(N3CCOCC3)cc2)CC1` [Example 17, (1R,2R)-N-(1-cyanocyclopropyl)-2-(2-(4-fluorophenyl)-4-(4-morpholinophenyl)oxazol-5-yl)cyclohexanecarboxamide], the IC50 on human cathepsin K amounted to 9.36 nM. Regarding `N#CC1(NC(=O)[C@@H]2CCCC[C@H]2c2oc(N3CCOCC3)nc2-c2ccc(N3CCS(=O)(=O)CC3)cc2)CC1` [Example 47, (1R,2R)-N-(1-cyanocyclopropyl)-2-(4-(4-(1,1-dioxidothiomorpholino)phenyl)-2-morpholinooxazol-5-yl)cyclohexanecarboxamide], on human cathepsin K, the IC50 turned out to be 3.11 nM. For the compound `N#CC1(NC(=O)[C@@H]2CCCC[C@H]2c2oc(-c3ccc(Cl)c(F)c3)nc2-c2ccc(N3CCS(=O)(=O)CC3)cc2)CC1` [Example 76, (1R,2R)-2-(2-(4-chloro-3-fluorophenyl)-4-(4-(1,1-dioxidothiomorpholino)phenyl)oxazol-5-yl)-N-(1-cyanocyclopropyl) cyclohexanecarboxamide], on human cathepsin K, the IC50 was 1.1 nM.

`N#CC1(NC(=O)[C@@H]2CCCC[C@H]2c2oc(-c3ccc(S(=O)(=O)C(F)(F)F)cc3)nc2-c2ccc(N3CCS(=O)(=O)CC3)cc2)CC1` [Example 104, (1R,2R)-N-(1-cyanocyclopropyl)-2-(4-(4-(1,1-dioxidothiomorpholino)phenyl)-2-(4-((trifluoromethyl)sulfonyl)phenyl)oxazol-5-yl)cyclohexanecarboxamide]: the IC50 at human cathepsin K was 2.4 nM. `N#CC1(NC(=O)[C@@H]2CCCC[C@H]2c2oc(-c3ccc(F)cc3F)nc2-c2ccc(C(=O)N3CCOCC3)cc2)CC1` [Example 120, (1R,2R)-N-(1-cyanocyclopropyl)-2-(2-(2,4-difluorophenyl)-4-(4-(morpholine-4-carbonyl)phenyl)oxazol-5-yl)cyclohexanecarboxamide]: the IC50 at human cathepsin K stood at 14.5 nM.
